Test [1] deals with T1, Amyloid-beta precursor protein (Homo sapiens, UniProt P05067). Kind of test: Inhibition of human amyloid beta (1 to 40) assessed as reduction in aggregation measured after 24 hrs by ThT fluorescence assay.
Test [2] addresses T1, Amyloid-beta precursor protein. Kind of test: Inhibition of amyloid beta (1 to 42) (unknown origin) assessed as reduction in aggregation at 50 uM by ThT fluorescence assay.

T1 sequence (P05067 whole entry): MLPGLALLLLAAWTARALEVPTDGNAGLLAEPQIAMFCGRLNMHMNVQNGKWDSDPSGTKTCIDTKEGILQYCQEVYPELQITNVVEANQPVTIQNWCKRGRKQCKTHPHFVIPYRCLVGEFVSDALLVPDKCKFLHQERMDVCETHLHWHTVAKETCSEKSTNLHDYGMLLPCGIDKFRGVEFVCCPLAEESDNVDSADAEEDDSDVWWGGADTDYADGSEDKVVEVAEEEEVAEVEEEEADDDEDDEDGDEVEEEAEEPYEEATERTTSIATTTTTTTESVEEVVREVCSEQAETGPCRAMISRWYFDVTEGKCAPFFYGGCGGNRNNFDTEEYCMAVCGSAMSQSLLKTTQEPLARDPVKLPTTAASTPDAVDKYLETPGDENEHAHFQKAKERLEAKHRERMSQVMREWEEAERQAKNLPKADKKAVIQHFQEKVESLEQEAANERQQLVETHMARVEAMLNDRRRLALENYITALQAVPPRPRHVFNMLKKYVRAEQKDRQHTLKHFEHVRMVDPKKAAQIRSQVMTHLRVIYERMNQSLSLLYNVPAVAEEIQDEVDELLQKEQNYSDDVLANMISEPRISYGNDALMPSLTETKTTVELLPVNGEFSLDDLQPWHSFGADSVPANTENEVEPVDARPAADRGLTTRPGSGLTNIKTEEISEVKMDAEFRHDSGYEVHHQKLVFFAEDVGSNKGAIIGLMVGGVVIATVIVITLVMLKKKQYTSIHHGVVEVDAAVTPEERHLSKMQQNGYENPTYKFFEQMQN

As to `COc1cc2oc(-c3ccc(O)cc3)cc(=O)c2c(O)c1-c1c(OC)cc(O)c2c(=O)cc(-c3ccc(O)cc3)oc12`, the IC50 – broadly, the concentration that inhibits the measured activity by half – in test [1] turned out to be 32.8 µM.

Take `COc1ccc(-c2cc(=O)c3c(O)cc(O)c(-c4cc(-c5cc(=O)c6c(O)cc(O)cc6o5)ccc4O)c3o2)cc1` [PODOCARPUSFLAVONE A]: in test [1], the IC50 amounted to 4.9 µM.

For `COc1ccc(-c2cc(=O)c3c(O)cc(O)c(-c4c(OC)cc5oc(-c6ccc(O)cc6)cc(=O)c5c4O)c3o2)cc1`, the half-maximal inhibitory concentration (IC50) in test [1] stood at 15.9 µM. `COc1cc(O)c2c(=O)cc(-c3ccc(O)cc3)oc2c1-c1cc(-c2cc(=O)c3c(O)cc(O)cc3o2)ccc1O` [SOTETSUFLAVONE]: the IC50 in test [1] was above 50 µM.

As for `COc1cc2oc(-c3ccc(O)cc3)cc(=O)c2c(O)c1-c1c(O)cc(O)c2c(=O)cc(-c3ccc(O)cc3)oc12`, the half-inhibitory concentration (IC50) in test [1] came to 13 µM.

For `COc1ccc(-c2cc(=O)c3c(O)cc(OC)c(-c4c(OC)cc(O)c5c(=O)cc(-c6ccc(OC)cc6)oc45)c3o2)cc1`, the concentration for half-maximal inhibition (IC50) in test [1] was above 50 µM. The same measure, in the same setting: for `COc1cc2oc(-c3ccc(O)cc3)cc(=O)c2c(O)c1-c1cc(-c2cc(=O)c3c(O)cc(O)cc3o2)ccc1O` the value was 21.3 µM; for `COc1cc(O)c2c(=O)cc(-c3ccc(OC)c(-c4c(OC)cc(O)c5c(=O)cc(-c6ccc(O)cc6)oc45)c3)oc2c1`, above 50 µM; for `COc1cc(O)c2c(=O)cc(-c3ccc(O)cc3)oc2c1-c1c(OC)cc(O)c2c(=O)cc(-c3ccc(O)cc3)oc12`, 17.3 µM. Same read-out and setting: for `COc1cc(O)c2c(=O)cc(-c3ccc(OC)c(-c4c(O)cc(O)c5c(=O)cc(-c6ccc(O)cc6)oc45)c3)oc2c1` [GINKGETIN] the value was 13.2 µM; for `O=c1cc(-c2ccc(O)cc2)oc2cc(O)cc(O)c12` [APIGENIN], above 50 µM.

Turning to `COc1cc(O)c2c(=O)cc(-c3ccc(O)c(-c4c(O)cc(O)c5c(=O)cc(-c6ccc(O)cc6)oc45)c3)oc2c1` [SEQUOIAFLAVONE], the IC50 in test [1] was 4.9 µM. As to `COc1ccc(-c2cc(=O)c3c(O)cc(OC)c(-c4c(OC)cc5oc(-c6ccc(O)cc6)cc(=O)c5c4O)c3o2)cc1`, the half-maximal inhibitory concentration (IC50) in test [1] was above 50 µM. `COc1cc2oc(-c3ccc(O)cc3)cc(=O)c2c(O)c1Oc1ccc(-c2cc(=O)c3c(O)cc(O)cc3o2)cc1`: the IC50 in test [1] is above 50 µM. For `COc1ccc(-c2cc(=O)c3c(O)c(Oc4ccc(-c5cc(=O)c6c(O)cc(O)cc6o5)cc4)c(OC)cc3o2)cc1`, the half-inhibitory concentration (IC50) in test [1] is above 50 µM. On to `COc1ccc(-c2cc(=O)c3c(O)cc(O)cc3o2)cc1-c1c(O)cc(O)c2c(=O)cc(-c3ccc(O)cc3)oc12` [BILOBETIN], for which, in test [1], the IC50 was 4.7 µM.

In the case of `COc1ccc(-c2cc(=O)c3c(O)cc(OC)c(-c4c(OC)cc(O)c5c(=O)cc(-c6ccc(O)cc6)oc45)c3o2)cc1`, the IC50 in test [1] came to 45.6 µM.

On to `COc1ccc(-c2cc(=O)c3c(O)cc(OC)c(-c4cc(-c5cc(=O)c6c(O)cc(O)cc6o5)ccc4O)c3o2)cc1` [7'',4'''-dimethylamentoflavone], for which the half-maximal inhibitory concentration (IC50) in test [1] was 20.1 µM. On to `COc1ccc(-c2cc(=O)c3c(O)c(Oc4ccc(-c5cc(=O)c6c(O)cc(O)cc6o5)cc4)c(O)cc3o2)cc1`, for which, in test [1], the IC50 is above 50 µM. Consider `COc1ccc(-c2cc(=O)c3c(O)cc(O)c(-c4cc(-c5cc(=O)c6c(O)cc(O)cc6o5)ccc4OC)c3o2)cc1` [ISOGINKGETIN], for which, in test [1], the half-maximal inhibitory concentration (IC50) came to 10.1 µM. As for `COc1ccc(-c2cc(=O)c3c(O)cc(O)cc3o2)cc1-c1c(O)cc2oc(-c3ccc(O)cc3)cc(=O)c2c1O`, the IC50 in test [1] is above 50 µM.

As to `COc1ccc(-c2cc(=O)c3c(O)cc(OC)c(-c4cc(-c5cc(=O)c6c(O)cc(OC)cc6o5)ccc4OC)c3o2)cc1`, the IC50 in test [1] was above 50 µM. Regarding `O=c1cc(-c2ccc(O)c(-c3c(O)cc(O)c4c(=O)cc(-c5ccc(O)cc5)oc34)c2)oc2cc(O)cc(O)c12` [AMENTOFLAVONE], in test [1], the IC50 was 4.8 µM. As to `COc1ccc(-c2cc(=O)c3c(O)cc(O)cc3o2)cc1-c1c(OC)cc(O)c2c(=O)cc(-c3ccc(O)cc3)oc12`, in test [1], the IC50 was above 50 µM. Take `COc1ccc(-c2cc(=O)c3c(O)cc(OC)c(-c4cc(-c5cc(=O)c6c(O)cc(OC)cc6o5)ccc4O)c3o2)cc1` [HEVEAFLAVONE]: the half-inhibitory concentration (IC50) in test [1] was above 50 µM.

In the case of `O=c1cc(-c2ccc(Oc3c(O)cc4oc(-c5ccc(O)cc5)cc(=O)c4c3O)cc2)oc2cc(O)cc(O)c12` [HINOKIFLAVONE], in test [1], the IC50 worked out at 9.5 µM. For `COc1ccc(-c2cc(=O)c3c(O)cc(OC)c(-c4cc(-c5cc(=O)c6c(O)cc(O)cc6o5)ccc4OC)c3o2)cc1` [KAYAFLAVONE], the half-maximal inhibitory concentration (IC50) in test [1] was above 50 µM.

With `COc1ccc(-c2cc(=O)c3c(O)cc(O)c(-c4cc(-c5cc(=O)c6c(O)cc(OC)cc6o5)ccc4OC)c3o2)cc1` [SCIADOPITISIN], the IC50 in test [1] was above 50 µM. Further, in test [2], the inhibition (commonly the drop in the measured response relative to a control, in per cent) stood at 44%.

The record behind these values is ChEMBL document CHEMBL4387742, “Naturally occurring biflavonoids with amyloid β aggregation inhibitory activity for development of anti-Alzheimer agents” (Bioorg Med Chem Lett, 2019).
